The record followed here is the kinase profiling compilation of Christmann-Franck et al. (2016).

As a reminder, the residual activity is the signal under treatment as a percentage of the control signal.

Chain of CAMK2A (human) (Q9UQM7 whole entry, looked up): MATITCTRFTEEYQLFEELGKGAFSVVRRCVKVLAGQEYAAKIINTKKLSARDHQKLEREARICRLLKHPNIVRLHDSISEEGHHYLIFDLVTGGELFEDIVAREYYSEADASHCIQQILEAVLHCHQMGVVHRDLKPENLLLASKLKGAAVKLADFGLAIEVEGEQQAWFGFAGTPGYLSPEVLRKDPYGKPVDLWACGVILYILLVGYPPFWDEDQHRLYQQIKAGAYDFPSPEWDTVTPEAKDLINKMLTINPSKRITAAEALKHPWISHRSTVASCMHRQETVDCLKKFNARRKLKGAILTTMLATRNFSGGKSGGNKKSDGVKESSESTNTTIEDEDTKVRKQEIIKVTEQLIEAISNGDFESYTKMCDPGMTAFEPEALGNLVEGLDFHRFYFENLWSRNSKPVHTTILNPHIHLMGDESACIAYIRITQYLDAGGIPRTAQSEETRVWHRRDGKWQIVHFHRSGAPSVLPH
Chain of PRKCB1 (human) (P05771 whole entry, looked up): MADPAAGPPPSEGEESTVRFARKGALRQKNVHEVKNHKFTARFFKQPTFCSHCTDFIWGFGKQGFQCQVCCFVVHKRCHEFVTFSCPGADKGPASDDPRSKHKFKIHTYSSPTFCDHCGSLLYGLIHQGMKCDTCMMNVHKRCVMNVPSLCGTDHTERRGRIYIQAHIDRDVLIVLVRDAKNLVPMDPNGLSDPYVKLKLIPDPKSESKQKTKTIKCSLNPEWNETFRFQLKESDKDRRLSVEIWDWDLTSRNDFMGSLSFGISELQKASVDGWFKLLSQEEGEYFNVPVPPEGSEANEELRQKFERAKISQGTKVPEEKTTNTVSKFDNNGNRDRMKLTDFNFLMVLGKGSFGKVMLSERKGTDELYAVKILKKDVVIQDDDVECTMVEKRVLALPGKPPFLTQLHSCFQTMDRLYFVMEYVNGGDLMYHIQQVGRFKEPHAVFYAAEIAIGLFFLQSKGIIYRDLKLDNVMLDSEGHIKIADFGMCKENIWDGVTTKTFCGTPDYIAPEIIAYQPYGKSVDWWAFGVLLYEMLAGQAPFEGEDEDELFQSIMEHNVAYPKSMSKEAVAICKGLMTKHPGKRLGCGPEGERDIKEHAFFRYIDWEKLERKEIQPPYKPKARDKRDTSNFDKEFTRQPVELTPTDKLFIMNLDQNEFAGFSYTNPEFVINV
Chain of CDK5 CDK5R1 p25 (human) (Q00535 whole entry, looked up): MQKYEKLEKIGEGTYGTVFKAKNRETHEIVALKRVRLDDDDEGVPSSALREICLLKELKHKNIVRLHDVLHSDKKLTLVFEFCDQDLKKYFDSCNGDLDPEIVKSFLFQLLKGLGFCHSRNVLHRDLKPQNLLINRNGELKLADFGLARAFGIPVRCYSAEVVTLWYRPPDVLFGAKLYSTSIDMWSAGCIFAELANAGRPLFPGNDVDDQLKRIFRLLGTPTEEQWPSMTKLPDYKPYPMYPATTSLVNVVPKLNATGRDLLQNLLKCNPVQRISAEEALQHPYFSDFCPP
Chain of CDK5 CDK5R1 p25 (human) (Q15078 whole entry, looked up): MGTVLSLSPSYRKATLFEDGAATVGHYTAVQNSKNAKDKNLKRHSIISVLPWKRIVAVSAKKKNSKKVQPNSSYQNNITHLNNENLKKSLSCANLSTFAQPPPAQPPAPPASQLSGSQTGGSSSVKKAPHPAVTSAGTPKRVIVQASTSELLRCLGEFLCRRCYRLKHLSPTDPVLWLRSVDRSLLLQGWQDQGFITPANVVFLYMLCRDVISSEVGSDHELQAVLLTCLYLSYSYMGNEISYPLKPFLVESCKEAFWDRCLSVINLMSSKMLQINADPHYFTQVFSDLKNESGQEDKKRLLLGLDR
Chain of EPHB3 (human) (P54753 whole entry, looked up): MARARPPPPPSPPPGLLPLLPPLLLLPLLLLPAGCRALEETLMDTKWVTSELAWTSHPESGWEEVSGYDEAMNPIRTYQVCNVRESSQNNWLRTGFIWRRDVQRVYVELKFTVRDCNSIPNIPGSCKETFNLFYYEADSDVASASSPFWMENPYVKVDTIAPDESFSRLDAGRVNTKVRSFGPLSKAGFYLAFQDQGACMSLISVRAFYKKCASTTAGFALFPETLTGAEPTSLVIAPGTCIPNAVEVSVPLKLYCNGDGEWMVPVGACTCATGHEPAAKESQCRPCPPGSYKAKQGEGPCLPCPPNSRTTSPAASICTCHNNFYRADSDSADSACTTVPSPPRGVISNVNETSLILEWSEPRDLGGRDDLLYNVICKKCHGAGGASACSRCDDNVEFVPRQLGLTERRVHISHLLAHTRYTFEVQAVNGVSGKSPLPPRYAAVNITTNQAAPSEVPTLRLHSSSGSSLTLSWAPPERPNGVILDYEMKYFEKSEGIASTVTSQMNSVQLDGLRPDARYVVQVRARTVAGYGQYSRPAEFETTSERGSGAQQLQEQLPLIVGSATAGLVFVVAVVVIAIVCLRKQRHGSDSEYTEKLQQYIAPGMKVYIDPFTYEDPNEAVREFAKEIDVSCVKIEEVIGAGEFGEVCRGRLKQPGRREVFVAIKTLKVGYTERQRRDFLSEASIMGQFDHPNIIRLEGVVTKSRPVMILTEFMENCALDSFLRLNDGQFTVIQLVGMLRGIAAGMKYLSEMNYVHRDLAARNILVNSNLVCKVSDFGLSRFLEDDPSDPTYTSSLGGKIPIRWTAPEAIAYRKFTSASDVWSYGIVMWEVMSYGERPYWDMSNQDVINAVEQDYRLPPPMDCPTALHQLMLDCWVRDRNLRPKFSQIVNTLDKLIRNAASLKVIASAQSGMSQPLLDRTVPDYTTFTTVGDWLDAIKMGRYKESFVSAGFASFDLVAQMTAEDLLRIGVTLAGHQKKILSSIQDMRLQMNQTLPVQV

In one assay the target is PRKCE (human) (UniProt Q02156). In words: radiometric filter-binding kinase assay, Kinase HotSpot. Particulars: compound 0.5 µM; ATP 10 µM.
Chain of PRKCE (human) (Q02156 whole entry, looked up): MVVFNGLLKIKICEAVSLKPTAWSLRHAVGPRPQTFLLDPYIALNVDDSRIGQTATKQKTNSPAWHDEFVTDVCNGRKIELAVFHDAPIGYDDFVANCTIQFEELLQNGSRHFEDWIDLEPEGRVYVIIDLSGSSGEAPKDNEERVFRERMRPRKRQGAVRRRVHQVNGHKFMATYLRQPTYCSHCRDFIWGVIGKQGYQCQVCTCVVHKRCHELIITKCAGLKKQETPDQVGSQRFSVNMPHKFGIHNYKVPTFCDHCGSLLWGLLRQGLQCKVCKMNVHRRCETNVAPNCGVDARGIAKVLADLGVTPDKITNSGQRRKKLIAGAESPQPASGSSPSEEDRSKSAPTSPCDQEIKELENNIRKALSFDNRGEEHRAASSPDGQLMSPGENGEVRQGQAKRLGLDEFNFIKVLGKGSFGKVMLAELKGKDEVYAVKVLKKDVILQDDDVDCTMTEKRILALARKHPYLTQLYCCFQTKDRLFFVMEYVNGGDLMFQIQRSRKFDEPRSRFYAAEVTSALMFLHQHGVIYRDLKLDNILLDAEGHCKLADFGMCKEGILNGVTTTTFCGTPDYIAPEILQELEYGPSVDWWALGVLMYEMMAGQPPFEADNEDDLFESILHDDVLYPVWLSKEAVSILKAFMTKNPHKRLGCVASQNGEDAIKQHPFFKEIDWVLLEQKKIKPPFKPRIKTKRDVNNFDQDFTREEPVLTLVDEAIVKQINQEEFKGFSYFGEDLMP
Regarding `O=C1NC(=O)/C(=C\c2ccc3nccnc3c2)S1`, the residual activity is 101%.

As to `COc1cc2ncc(-c3ccccc3)nc2cc1OC`, the residual activity came out at 87.9%.

Take `CN([C@@H](Cc1ccc(OS(=O)(=O)c2cccc3cnccc23)cc1)C(=O)N1CCN(c2ccccc2)CC1)S(=O)(=O)c1cccc2cnccc12`: the residual activity came out at 99.5%.

The target in a further assay is TBK1 (human) (UniProt Q9UHD2). The description is as above. The note with it: compound 0.5 µM; ATP 10 µM.
As for `O=C1NC(=O)/C(=C\c2ccc3nccnc3c2)S1`, the residual activity came to 90.6%.

With `COc1cc2ncc(-c3ccccc3)nc2cc1OC`, the residual activity was 87.2%.

For `CN([C@@H](Cc1ccc(OS(=O)(=O)c2cccc3cnccc23)cc1)C(=O)N1CCN(c2ccccc2)CC1)S(=O)(=O)c1cccc2cnccc12`, the residual activity came to 101%.

The next assay addresses PRKCB1 (human) (UniProt P05771). The description is as above. Particulars: compound 0.5 µM; ATP 10 µM.
In the case of `O=C1NC(=O)/C(=C\c2ccc3nccnc3c2)S1`, the residual activity is 96.9%.

Regarding `COc1cc2ncc(-c3ccccc3)nc2cc1OC`, the residual activity was 105%.

`CN([C@@H](Cc1ccc(OS(=O)(=O)c2cccc3cnccc23)cc1)C(=O)N1CCN(c2ccccc2)CC1)S(=O)(=O)c1cccc2cnccc12`: the residual activity was 95.9%.

The next assay has as its target CDK5 CDK5R1 p25 (human) (UniProt Q00535+Q15078). The description is as above. Particulars: compound 0.5 µM; ATP 10 µM.
Take `O=C1NC(=O)/C(=C\c2ccc3nccnc3c2)S1`: the residual activity turned out to be 83.2%.

Consider `COc1cc2ncc(-c3ccccc3)nc2cc1OC`, for which the residual activity worked out at 94.6%.

As for `CN([C@@H](Cc1ccc(OS(=O)(=O)c2cccc3cnccc23)cc1)C(=O)N1CCN(c2ccccc2)CC1)S(=O)(=O)c1cccc2cnccc12`, the residual activity was found to be 93.5%.

A further assay has as its target AKT3 (human) (UniProt Q9Y243). The description is as above. The note with it: compound 0.5 µM; ATP 10 µM.
As for `O=C1NC(=O)/C(=C\c2ccc3nccnc3c2)S1`, the residual activity came to 104%.

For `COc1cc2ncc(-c3ccccc3)nc2cc1OC`, the residual activity amounted to 94.5%.

As for `CN([C@@H](Cc1ccc(OS(=O)(=O)c2cccc3cnccc23)cc1)C(=O)N1CCN(c2ccccc2)CC1)S(=O)(=O)c1cccc2cnccc12`, the residual activity was 104%.

In a further assay the target is CAMK2D (human) (UniProt Q13557). The description is as above. Particulars: compound 0.5 µM; ATP 10 µM.
As for `O=C1NC(=O)/C(=C\c2ccc3nccnc3c2)S1`, the residual activity was determined as 93.7%.

On to `COc1cc2ncc(-c3ccccc3)nc2cc1OC`, for which the residual activity was 87.5%.

As for `CN([C@@H](Cc1ccc(OS(=O)(=O)c2cccc3cnccc23)cc1)C(=O)N1CCN(c2ccccc2)CC1)S(=O)(=O)c1cccc2cnccc12`, the residual activity is 92.8%.

The target of another assay is CDK4 CCND1 (human) (UniProt P24385+P11802). The assay is described as above. The note with it: compound 0.5 µM; ATP 10 µM.
Chain of CDK4 CCND1 (human) (P11802 whole entry, looked up): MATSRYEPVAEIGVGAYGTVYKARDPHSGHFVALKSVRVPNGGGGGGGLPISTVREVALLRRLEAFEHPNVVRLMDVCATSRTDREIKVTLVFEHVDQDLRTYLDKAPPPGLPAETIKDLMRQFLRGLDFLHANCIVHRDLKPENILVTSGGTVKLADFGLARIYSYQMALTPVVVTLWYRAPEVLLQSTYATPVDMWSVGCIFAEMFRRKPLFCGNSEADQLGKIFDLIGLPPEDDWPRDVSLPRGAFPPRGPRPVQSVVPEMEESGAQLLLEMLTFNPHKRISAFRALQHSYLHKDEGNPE
Chain of CDK4 CCND1 (human) (P24385 whole entry, looked up): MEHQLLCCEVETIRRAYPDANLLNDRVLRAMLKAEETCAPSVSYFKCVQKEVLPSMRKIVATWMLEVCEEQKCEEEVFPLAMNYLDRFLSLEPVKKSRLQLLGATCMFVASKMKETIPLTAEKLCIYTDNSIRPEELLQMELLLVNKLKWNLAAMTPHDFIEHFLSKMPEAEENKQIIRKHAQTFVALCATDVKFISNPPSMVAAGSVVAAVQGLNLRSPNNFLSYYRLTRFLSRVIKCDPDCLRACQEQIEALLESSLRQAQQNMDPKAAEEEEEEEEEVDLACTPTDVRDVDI
Regarding `O=C1NC(=O)/C(=C\c2ccc3nccnc3c2)S1`, the residual activity was determined as 94.4%.

`COc1cc2ncc(-c3ccccc3)nc2cc1OC`: the residual activity was 103%.

On to `CN([C@@H](Cc1ccc(OS(=O)(=O)c2cccc3cnccc23)cc1)C(=O)N1CCN(c2ccccc2)CC1)S(=O)(=O)c1cccc2cnccc12`, for which the residual activity turned out to be 95.3%.

Another assay deals with JAK1 JH1 catalytic (human) (UniProt P23458). The assay is described as above. The note with it: compound 0.5 µM; ATP 10 µM.
For `O=C1NC(=O)/C(=C\c2ccc3nccnc3c2)S1`, the residual activity came to 103%.

For the compound `COc1cc2ncc(-c3ccccc3)nc2cc1OC`, the residual activity came to 91.5%.

`CN([C@@H](Cc1ccc(OS(=O)(=O)c2cccc3cnccc23)cc1)C(=O)N1CCN(c2ccccc2)CC1)S(=O)(=O)c1cccc2cnccc12`: the residual activity was determined as 108%.

The target of a further assay is STK16 (human) (UniProt O75716). The description is as above. Particulars: compound 0.5 µM; ATP 10 µM.
Chain of STK16 (human) (O75716 whole entry, looked up): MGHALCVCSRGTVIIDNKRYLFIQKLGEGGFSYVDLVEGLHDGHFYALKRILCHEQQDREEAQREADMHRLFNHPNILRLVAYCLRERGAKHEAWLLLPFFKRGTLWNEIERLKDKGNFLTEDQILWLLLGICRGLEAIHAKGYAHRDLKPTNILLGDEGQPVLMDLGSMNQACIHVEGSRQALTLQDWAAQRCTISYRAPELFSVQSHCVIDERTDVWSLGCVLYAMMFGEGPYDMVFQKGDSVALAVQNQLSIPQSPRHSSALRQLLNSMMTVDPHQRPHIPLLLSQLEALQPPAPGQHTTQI
Turning to `O=C1NC(=O)/C(=C\c2ccc3nccnc3c2)S1`, the residual activity turned out to be 91.9%.

Consider `COc1cc2ncc(-c3ccccc3)nc2cc1OC`, for which the residual activity worked out at 93.5%.

Consider `CN([C@@H](Cc1ccc(OS(=O)(=O)c2cccc3cnccc23)cc1)C(=O)N1CCN(c2ccccc2)CC1)S(=O)(=O)c1cccc2cnccc12`, for which the residual activity was determined as 104%.

In the next assay the target is CDK5 CDK5R1 p35 (human) (UniProt Q00535+Q15078). The assay is described as above. Particulars: compound 0.5 µM; ATP 10 µM.
Turning to `O=C1NC(=O)/C(=C\c2ccc3nccnc3c2)S1`, the residual activity was determined as 97.9%.

As for `COc1cc2ncc(-c3ccccc3)nc2cc1OC`, the residual activity is 95.8%.

Consider `CN([C@@H](Cc1ccc(OS(=O)(=O)c2cccc3cnccc23)cc1)C(=O)N1CCN(c2ccccc2)CC1)S(=O)(=O)c1cccc2cnccc12`, for which the residual activity turned out to be 99.5%.

A further assay addresses KDR (human) (UniProt P35968). The description is as above. Particulars: compound 0.5 µM; ATP 10 µM.
With `O=C1NC(=O)/C(=C\c2ccc3nccnc3c2)S1`, the residual activity was found to be 92.6%.

In the case of `COc1cc2ncc(-c3ccccc3)nc2cc1OC`, the residual activity turned out to be 85.4%.

Regarding `CN([C@@H](Cc1ccc(OS(=O)(=O)c2cccc3cnccc23)cc1)C(=O)N1CCN(c2ccccc2)CC1)S(=O)(=O)c1cccc2cnccc12`, the residual activity is 100%.

A further assay deals with CHUK (human) (UniProt O15111). The description is as above. Particulars: compound 0.5 µM; ATP 10 µM.
In the case of `O=C1NC(=O)/C(=C\c2ccc3nccnc3c2)S1`, the residual activity amounted to 86.7%.

Regarding `COc1cc2ncc(-c3ccccc3)nc2cc1OC`, the residual activity was 113%.

For the compound `CN([C@@H](Cc1ccc(OS(=O)(=O)c2cccc3cnccc23)cc1)C(=O)N1CCN(c2ccccc2)CC1)S(=O)(=O)c1cccc2cnccc12`, the residual activity came to 93.4%.

In another assay the target is DAPK3 (human) (UniProt O43293). The assay is described as above. Particulars: compound 0.5 µM; ATP 10 µM.
Chain of DAPK3 (human) (O43293 whole entry, looked up): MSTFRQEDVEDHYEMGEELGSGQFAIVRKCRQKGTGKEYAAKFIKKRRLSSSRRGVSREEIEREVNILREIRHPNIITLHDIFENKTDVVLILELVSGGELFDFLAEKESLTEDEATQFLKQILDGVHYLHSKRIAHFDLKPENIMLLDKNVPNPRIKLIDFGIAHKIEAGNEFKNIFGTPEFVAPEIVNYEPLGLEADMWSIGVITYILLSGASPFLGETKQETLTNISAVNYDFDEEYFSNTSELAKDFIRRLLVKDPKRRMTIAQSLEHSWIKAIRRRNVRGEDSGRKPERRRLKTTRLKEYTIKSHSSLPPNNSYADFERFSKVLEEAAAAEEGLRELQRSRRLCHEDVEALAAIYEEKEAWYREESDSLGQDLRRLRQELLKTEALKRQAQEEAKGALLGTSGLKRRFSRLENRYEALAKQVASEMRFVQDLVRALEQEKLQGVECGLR
With `O=C1NC(=O)/C(=C\c2ccc3nccnc3c2)S1`, the residual activity turned out to be 93.3%.

With `COc1cc2ncc(-c3ccccc3)nc2cc1OC`, the residual activity turned out to be 84.7%.

As for `CN([C@@H](Cc1ccc(OS(=O)(=O)c2cccc3cnccc23)cc1)C(=O)N1CCN(c2ccccc2)CC1)S(=O)(=O)c1cccc2cnccc12`, the residual activity was found to be 106%.

A further assay addresses CAMK2A (human) (UniProt Q9UQM7). The assay is described as above. The note with it: compound 0.5 µM; ATP 10 µM.
With `O=C1NC(=O)/C(=C\c2ccc3nccnc3c2)S1`, the residual activity amounted to 92.3%.

As to `COc1cc2ncc(-c3ccccc3)nc2cc1OC`, the residual activity amounted to 99.5%.

With `CN([C@@H](Cc1ccc(OS(=O)(=O)c2cccc3cnccc23)cc1)C(=O)N1CCN(c2ccccc2)CC1)S(=O)(=O)c1cccc2cnccc12`, the residual activity turned out to be 107%.

The next assay has as its target TTK (human) (UniProt P33981). The assay is described as above. Particulars: compound 0.5 µM; ATP 10 µM.
As to `O=C1NC(=O)/C(=C\c2ccc3nccnc3c2)S1`, the residual activity was 102%.

As to `COc1cc2ncc(-c3ccccc3)nc2cc1OC`, the residual activity stood at 125%.

For the compound `CN([C@@H](Cc1ccc(OS(=O)(=O)c2cccc3cnccc23)cc1)C(=O)N1CCN(c2ccccc2)CC1)S(=O)(=O)c1cccc2cnccc12`, the residual activity amounted to 86%.

The next assay addresses PRKCA (human) (UniProt P17252). The description is as above. The note with it: compound 0.5 µM; ATP 10 µM.
Consider `O=C1NC(=O)/C(=C\c2ccc3nccnc3c2)S1`, for which the residual activity worked out at 102%.

Take `COc1cc2ncc(-c3ccccc3)nc2cc1OC`: the residual activity amounted to 103%.

Consider `CN([C@@H](Cc1ccc(OS(=O)(=O)c2cccc3cnccc23)cc1)C(=O)N1CCN(c2ccccc2)CC1)S(=O)(=O)c1cccc2cnccc12`, for which the residual activity came to 105%.

The next assay addresses EPHB3 (human) (UniProt P54753). Described as above. The note with it: compound 0.5 µM; ATP 10 µM.
Regarding `O=C1NC(=O)/C(=C\c2ccc3nccnc3c2)S1`, the residual activity turned out to be 94.5%.

As for `COc1cc2ncc(-c3ccccc3)nc2cc1OC`, the residual activity is 88.6%.

As for `CN([C@@H](Cc1ccc(OS(=O)(=O)c2cccc3cnccc23)cc1)C(=O)N1CCN(c2ccccc2)CC1)S(=O)(=O)c1cccc2cnccc12`, the residual activity amounted to 97%.

Another assay concerns the target ROS1 (human) (UniProt P08922). The description is as above. Particulars: compound 0.5 µM; ATP 10 µM.
As to `O=C1NC(=O)/C(=C\c2ccc3nccnc3c2)S1`, the residual activity turned out to be 92.3%.

For the compound `COc1cc2ncc(-c3ccccc3)nc2cc1OC`, the residual activity worked out at 100%.

As for `CN([C@@H](Cc1ccc(OS(=O)(=O)c2cccc3cnccc23)cc1)C(=O)N1CCN(c2ccccc2)CC1)S(=O)(=O)c1cccc2cnccc12`, the residual activity worked out at 96.5%.

In the next assay the target is DCLK2 (human) (UniProt Q8N568). The description is as above. Particulars: compound 0.5 µM; ATP 10 µM.
On to `O=C1NC(=O)/C(=C\c2ccc3nccnc3c2)S1`, for which the residual activity amounted to 94.3%.

Turning to `COc1cc2ncc(-c3ccccc3)nc2cc1OC`, the residual activity is 96%.

`CN([C@@H](Cc1ccc(OS(=O)(=O)c2cccc3cnccc23)cc1)C(=O)N1CCN(c2ccccc2)CC1)S(=O)(=O)c1cccc2cnccc12`: the residual activity came out at 94.1%.

The next assay addresses ZAP70 (human) (UniProt P43403). The description is as above. The note with it: compound 0.5 µM; ATP 10 µM.
For the compound `O=C1NC(=O)/C(=C\c2ccc3nccnc3c2)S1`, the residual activity is 92.4%.

As to `COc1cc2ncc(-c3ccccc3)nc2cc1OC`, the residual activity came to 98.6%.

For `CN([C@@H](Cc1ccc(OS(=O)(=O)c2cccc3cnccc23)cc1)C(=O)N1CCN(c2ccccc2)CC1)S(=O)(=O)c1cccc2cnccc12`, the residual activity stood at 99.5%.

For another assay, the target named is PDGFRB (human) (UniProt P09619). The description is as above. The note with it: compound 0.5 µM; ATP 10 µM.
For the compound `O=C1NC(=O)/C(=C\c2ccc3nccnc3c2)S1`, the residual activity came out at 99.5%.

As for `COc1cc2ncc(-c3ccccc3)nc2cc1OC`, the residual activity was 87.5%.

Consider `CN([C@@H](Cc1ccc(OS(=O)(=O)c2cccc3cnccc23)cc1)C(=O)N1CCN(c2ccccc2)CC1)S(=O)(=O)c1cccc2cnccc12`, for which the residual activity came to 104%.
